Our source for the DC50 values is patent publication US20230416242A1, “DOUBLE DEGRADERS AND USES THEREOF” (Kymera Therapeutics, Inc., priority 2020, published 2023).

In general, DC50 refers to the midpoint of the concentration-degradation curve. High values mean degradation only at high concentration, low ones degradation at low concentration.

The target of this experiment is T1, IRAK4 (Homo sapiens, UniProt Q9NWZ3).
T1 construct: endogenous in cells; host or cells: OCI-LY10
T1 sequence (Q9NWZ3 1-460): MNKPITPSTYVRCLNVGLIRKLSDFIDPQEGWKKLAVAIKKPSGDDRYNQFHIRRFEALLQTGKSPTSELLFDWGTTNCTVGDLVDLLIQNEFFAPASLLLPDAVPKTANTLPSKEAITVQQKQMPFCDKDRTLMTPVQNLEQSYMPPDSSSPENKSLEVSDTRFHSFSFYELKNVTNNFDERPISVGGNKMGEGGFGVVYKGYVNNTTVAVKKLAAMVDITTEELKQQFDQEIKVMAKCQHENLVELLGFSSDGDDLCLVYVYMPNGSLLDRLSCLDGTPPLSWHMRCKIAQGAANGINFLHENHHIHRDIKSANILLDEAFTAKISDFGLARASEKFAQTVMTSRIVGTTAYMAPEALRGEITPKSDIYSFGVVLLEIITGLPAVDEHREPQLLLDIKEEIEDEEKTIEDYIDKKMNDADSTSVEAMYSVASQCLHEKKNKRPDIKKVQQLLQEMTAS
Briefly: IRAK4 MSD degradation in OCI-LY10. The experiment is classed as cell-based. The note with it: OCI-LY10 cells, 24 hrs, Meso Scale Discovery. As for the experimental part:
Degradation of IRAK4 in OCI-LY10 was quantitatively measured using Meso Scale Discovery technology. OCI-LY10 cells were seeded in 96-well plates (Coming 3799) with a density of 300,000 cells per well in 100 μL fresh media. Compounds were then added to the assay plates with a final top concentration of 1 to 10 μM in a 1:3 dilution series with total of 8 doses. The assay plates were then incubated for 4 to 24 hours at 37° C. under 5% CO2. The assay plates were then centrifuged for 5 minutes and the cell pellets were treated with 100 μL/well RIPA lysis buffer (Boston BioProducts BP-115D) with proteinase inhibitors. To prepare MSD assay plates (Meso Scale Discovery Catalog number L15XA-3), the plates were coated with […] capture antibody (mouse Anti-IRAK4 antibody [2H9], ab119942) in PBS, at 40 μL/well. The plates were then incubated overnight at 4° C., washed 3 times with 150 μL/well TBST buffer (Cell Signaling Technology, Catalog number 9997S) and blocked with 150 μL/well blocking buffer (Meso Scale Discovery Catalog number R93BA-4). Cell lysates were then added to MSD assay plates and the plates were incubated at room temperature for 1 hour. The plates were then washed 3 times with 150 µL/well TBST buffer and 25 μL/well primary detection antibody (rabbit Anti-IRAK4 antibody [Y279], from Abcam. Catalog number ab32511, 1 μg/mL). The assay plates were then incubated at room temperature for 1 hour, washed 3 times with 150 μL/well TBST buffer and 25 μL/well secondary detection antibody, SULFO-TAG anti-rabbit antibody were added (anti rabbit antibody from Meso Scale Discovery, Catalog number R32AB-1, 1 μg/mL). The assay plates were then incubated at room temperature for 1 hour, washed 3 times with 150 μL/well TBST buffer, and 150 μL/well MSD reading buffer (Meso Scale Discovery catalog number R92TC-2) was added. The plates were then analyzed by a MSD reader (Meso Scale Discovery, Model Quick Plex SQ 120). The data was then analyzed by software Prism 7.0 from GraphPad and the dose-depended IRAK4 degradation were fit using a three-parameter logistic equation to calculate DC50.
The letter codes for IRAK4 DC50 include: A (<1 μM); B (1-10 μM); and C ([…]).
Compound `CC(C)(O)c1cc2nc([C@H]3CC[C@H](CN4CC5(CC(C(CNc6cccc7c6C(=O)N(C6CCC(=O)NC6=O)C7=O)CN6CCC(c7ccc(Nc8nc(N9CCCCC9)cnc8C(N)=O)cc7)CC6)C5)C4)CC3)sc2cc1NC(=O)c1cccc(C(F)(F)F)n1` (stereo partly shown) [Compound I-7] displayed a 50% degradation concentration (DC50) of 1000 to 10000 nM.

`Cn1c(=O)n(C2CCC(=O)NC2=O)c2cccc(CCCCN(CCNC(=O)[C@H]3CC[C@H](n4cc5cc(NC(=O)c6cccc(C(F)(F)F)n6)c(C(C)(C)O)cc5n4)CC3)CC(=O)N3CC(N4CCC(c5ccc(Nc6nc(N7CCCCC7)cnc6C(N)=O)cc5)CC4)C3)c21` (stereo partly drawn) [Compound I-14, 3-((4-(1-(1-(2-((4-(1-(2,6-Dioxopiperidin-3-yl)-3-methyl-2-oxo-2,3-dihydro-1H-benzo[d]imidazole-4-yl)butyl)(2-((1R,4R)-4-(6-(2-hydroxypropan-2-yl)-5-(6-(trifluoromethyl)picolinamido)-2H-indazol-2-yl)cyclohexanecarboxamido)ethyl)amino)acetyl)azetidin-3-yl)piperidin-4-yl)phenyl)amino)-5-(piperidin-1-yl)pyrazine-2-carboxamide]: the half-maximal degradation concentration (DC50) is less than 1000 nM.

On to `NC(=O)c1ncc(N2CCCCC2)nc1Nc1ccc(C2CCN(CCCCN(CCC3CCN(C[C@H]4CC[C@H](n5cc(NC(=O)c6cnn7ccc(N8CCOCC8)nc67)c(C(F)F)n5)CC4)CC3)c3cccc4c3C(=O)N(C3CCC(=O)NC3=O)C4=O)CC2)cc1` (stereo partly shown) [Compound I-6], for which the half-maximal degradation concentration (DC50) was 1000 to 10000 nM.

With `CC(C)(O)c1cc2nn([C@H]3CC[C@H](CN4CC5(CC(C(CNc6cccc7c6C(=O)N(C6CCC(=O)NC6=O)C7=O)CN6CCC(c7ccc(Nc8nc(N9CCCCC9)cnc8C(N)=O)cc7)CC6)C5)C4)CC3)cc2cc1NC(=O)c1cccc(C(F)(F)F)n1` (stereo partly shown) [Compound I-8], the DC50 is less than 1000 nM.

Compound `NC(=O)c1ncc(N2CCCCC2)nc1Nc1ccc(C2CCN(CC(CNc3cccc4c3C(=O)N(C3CCC(=O)NC3=O)C4=O)C3CC4(C3)CN(C[C@H]3CC[C@H](n5cc(NC(=O)c6cnn7ccc(N8CCOCC8)nc67)c(C(F)F)n5)CC3)C4)CC2)cc1` (stereo partly shown) [Compound I-9] showed a 50% degradation concentration (DC50) of less than 1000 nM.

As for `Cc1ncsc1-c1ccc(CNC(=O)[C@@H]2C[C@@H](O)CN2C(=O)[C@@H](NC(=O)COCCOCCN2CCC(c3ccc(Nc4nc(N5CCCCC5)cnc4C(N)=O)cc3)CC2)C(C)(C)C)c(OCCOCCN(C)C[C@H]2CC[C@H](n3cc4cc(NC(=O)c5cccc(C(F)(F)F)n5)c(C(C)(C)O)cc4n3)CC2)c1` [Compound I-17], the DC50 fell in the range of 1000 to 10000 nM.

As to `Cn1c(=O)n(C2CCC(=O)NC2=O)c2cccc(CCCCN(CCNC(=O)[C@H]3CC[C@H](n4cc5cc(NC(=O)c6cccc(C(F)(F)F)n6)c(C(C)(C)O)cc5n4)CC3)CC(=O)N3CCC(c4ccc(Nc5nc(N6CCCCC6)cnc5C(N)=O)cc4)CC3)c21` (stereo partly shown) [Compound I-15], the DC50 was less than 1000 nM.

In the case of `Cc1ncsc1-c1ccc(CNC(=O)[C@@H]2C[C@@H](O)CN2C(=O)[C@@H](NC(=O)COCCOCCN2CCN(C(=O)c3ccc(Nc4nc(-c5cccc(NC(=O)c6ccc(C(C)(C)C)cc6)c5C)cn(C)c4=O)cc3)CC2)C(C)(C)C)c(OCCOCCN(C)C[C@H]2CC[C@H](n3cc4cc(NC(=O)c5cccc(C(F)(F)F)n5)c(C(C)(C)O)cc4n3)CC2)c1` [Compound I-18], the DC50 is 1000 to 10000 nM.

Turning to `CC(C)(O)c1cc2nn([C@H]3CC[C@H](CN4CCC(CCN(CCCCN5CCC(c6ccc(Nc7nc(N8CCCCC8)cnc7C(N)=O)cc6)CC5)c5cccc6c5C(=O)N(C5CCC(=O)NC5=O)C6=O)CC4)CC3)cc2cc1NC(=O)c1cccc(C(F)(F)F)n1` (stereo partly shown) [Compound I-4], the half-maximal degradation concentration (DC50) is less than 1000 nM.

`CC(C)(O)c1cc2nc([C@H]3CC[C@H](CN4CCC(CCN(CCCCN5CCC(c6ccc(Nc7nc(N8CCCCC8)cnc7C(N)=O)cc6)CC5)c5cccc6c5C(=O)N(C5CCC(=O)NC5=O)C6=O)CC4)CC3)sc2cc1NC(=O)c1cccc(C(F)(F)F)n1` (stereo partly drawn) [Compound I-5, 3-((4-(1-(4-((2-(2,6-Dioxopiperidin-3-yl)-1,3-dioxoisoindolin-4-yl)(2-(1-(((1R,4R)-4-(5-(2-hydroxypropan-2-yl)-6-(6-(trifluoromethyl)picolinamido)benzo[d]thiazol-2-yl)cyclohexyl)methyl)piperidin-4-yl)ethyl)amino)butyl)piperidin-4-yl)phenyl)amino)-5-(piperidin-1-yl)pyrazine-2-carboxamide] registered a half-maximal degradation concentration (DC50) of less than 1000 nM.
